Where two headings read alike, the source gives them in different places.
Experiments:
primary AML cells = assay: Monocytic differentiation (CD14) in primary AML; format: cell-based, human
Method: (§1) Immunophenotyping. The PE-conjugated anti-CD11b, FITC-conjugated anti-CD14 monoclonal antibody (mAb) (Becton Dickinson) and PE-conjugated anti-CD95 mAb (PharMingen) were used at a 1/10 dilution.
(§2) CDDO-Me. […] Effects of CDDO-Me were also tested on clonogenic AML cells.

normal CD34+ cells = assay: CFU-GM of normal CD34+ cells (CFU-GEMM assay); format: cell-based, human; conditions: for CFU-GM generated from normal CD34+ cells detected: n=3
Method: CFU-Granulocyte-Erythroid-Macrophage-Megakaryocyte (CFU-GEMM) Assay. In three experiments, 2×10^5 CD34^+ cells isolated from normal bone marrow (n=1) or G-CSF-stimulated peripheral blood (n=2) were plated in 0.8% methylcellulose with IMDM, 1 U/mL human erythropoietin (Terry Fox Laboratories, Vancouver, Canada), and 50 ng/mL recombinant hGM-CSF. CDDO-Me was added at the initiation of cultures at concentrations ranging from 0.05 to 0.5 μg/mL.
(§3) The effect of CDDO on clonogenic AML cells were tested. […] (FIG. 7).
as §2

CML-BC sample = assay: Colony formation of CML-BC sample; format: cell-based, human; conditions: CDDO 0.5 μM, CDDO-Me 0.1 μM
Daudi cells = assay: cells
Method: (§4) Suspension culture of leukemic cells. Leukemic cell lines were cultured at a density of 3.0×10^5 cells/mL, and AML mononuclear cells at 5×10^5 cells/mL in the presence or absence of indicated concentrations of CDDO-Me. Appropriate amounts of DMSO (final concentration<0.05%) was included as a control. For cytotoxicity studies, 1 μM ara-C was added to the cultures.
(§5) CDDO-Me. […] Mechanism of growth inhibition was analyzed on cell cycle and apoptosis in HL-60 cells.

HL-60 cells [1] = assay: Differentiation by CD11b/CD14 flow cytometry; format: cell-based, human; conditions: for CD11b %: 7 days; for percentage of CD14 (+) live cells (FCM): no ligand
Method: as §1
Enhancement in cellular differentiation using combinations of CDDO with ATRA were tested. […] Cell differentiation was analyzed by flow cytometry (CD14/CD11b staining). […] These experiments were repeated. […]
Finally, the inventors examined if CDDO-Me combined with ATRA would enhance differentiation. […] […] Next, combined treatment with CDDO-Me and RXR-specific ligand were tested for potentiation of anti-leukemic effects.

[2] = system: bone marrow endothelial cells; assay: Matrigel tube-like endothelial structure formation; format: cell-based
Method: CDDO. PPARγ nuclear receptor is expressed in bone marrow endothelial cells, and PPARγ ligands inhibit inhibited endothelial cell proliferation. […] The present inventors therefore tested the effects of CDDO in endothelial cell assays. The formation of tube-like endothelial structures was performed using Matrigel®, a basement membrane matrix extracted from the Engelbreth-Holm Swarm mouse sarcoma cell line. Bone marrow endothelial cells with recombinant angiogenic cytokines were incubated in the presence or absence of CDDO, and formation of tube-like endothelial structures was assessed by direct observation using a inverted contrast-phase microscope. […] Vascular endothelial cells (HUVEC) were grown in EBM-2 or EGM-2 media (Clonetics) containing VEGF, EGF, bFGF and IGF-1. The proliferation of endothelial cells was assessed by inverted contrast-phase microscope after 24 hrs of CDDO exposure in the indicated concentrations. CDDO-Me. The formation of tube-like endothelial structures that are associated with angiogenesis was analyzed using a Matrigel system (Kubota et al., 1988). Capillary-like structure formation of bone marrow endothelium was inhibited by CDDO-Me. […] Thus, CDDO-Me also has anti-angiogenic effects.

HL-60-Dox cells = assay: Killing of MDR-1 expressing cells; format: cell-based, human
[3] = Text: Subacute toxicity studies. An important aspect of this invention of CDDO-compounds and its combination therapies with other chemotherapeutics is to assess the toxicity and relative therapeutic efficacy of CDDO-compounds. The preliminary toxicity (i.e. determination of LD50 and MTD [maximum tolerated dose]) of CDDO-compounds was studied in healthy BALB/C mice (male and female, 25-30 g) after single i. v. or oral injections. Seven different dose levels (10 mice/dose level) were used after the appropriate pilot dosing experiments to define a MTD dose for both the oral and iv routes of administration. Animals were observed and weighed daily. The experiment was terminated on day 14. Surviving animals were sacrificed by exposure to carbon dioxide. The unit-dose effect line will be constructed and used to calculate lethal doses LD10 and LD50).
Determination of MTD. 60 female Balb/C mice divided into 12 groups of 5 mice. With 5 mice per dose level, six dose levels for IV or oral drug administration were used.
(§6) Intravenous CDDO administration. Groups of mice received CDDO intravenously as a single bolus injection into the tail vein on Day 1. […] The typical organs from each mouse that are examined include brain, heart, lungs, spleen, pancreas, kidneys, liver, gastrointestinal tract, lymph nodes, muscle, bone marrow, and skin.
as §6, with “CDDO-Me” for “CDDO”

HL-60 cells [4] = assay: Viable cell count of leukemic cells in suspension culture (Trypan blue); format: cell-based, human; conditions: for IC50: HL-60
Method: as §4
CDDO. […] The percentage of proliferating cells were analyzed by FCM.
as §5

AML progenitors = assay: AML blast colony assay; format: cell-based, human
Method: AML blast colony assay. A previously described method was used to measure AML blast colony formation. Briefly, 1×10^5 T-cell-depleted, nonadherent, low-density bone marrow cells were plated in 0.8% methylcellulose in Iscove's modified Dulbecco's medium (IMDM; Gibco Laboratories, Grand Island, N.Y.) supplemented with 10% fetal bovine serum and 15 ng/mL recombinant human granulocyte-macrophage colony-stimulating factor (hGM-CSF). CDDO or CDDO-Me was added at the initiation of cultures at concentrations ranging from 0.05 to 0.5 μg/mL. AML blast colonies were evaluated under a microscope on day 7 of culture in duplicate dishes.
as §3, §2

SMILES: COC(=O)[C@]12CCC(C)(C)C[C@H]1[C@H]1C(=O)C=C3[C@@]4(C)C=C(C#N)C(=O)C(C)(C)[C@@H]4CC[C@@]3(C)[C@]1(C)CC2 [CDDO-Me]
- AML samples with induced monocytic differentiation (CD14) (primary AML cells): 2/5
- CFU-GM generated from normal CD34+ cells detected (normal CD34+ cells; 0.1 μM): 79±5.6%
- CFU-GM generated from normal CD34+ cells detected (normal CD34+ cells; 0.5 μM): 63.4±1.1%
- inhibition of colonies in one CML-BC sample (CML-BC sample): > 50%
- cell number, % of DMSO-controls (Daudi cells; 0.3 μM, 48 hrs): 22.5%
- CD11b+ cells (HL-60 cells [1]; 0.1 μM): 86.6%
- CD11b+ cells (HL-60 cells [1]; 48 hrs, CDDO-Me 0.1 μM, ATRA 1 μM, alone or simultaneously (DMSO controls 40%)): 67.4%
- formation of capillary-like structures by bone marrow endothelium [2]: inhibited
- sensitivity of HL-60-Dox cells with high expression of the MDR-1 gene (HL-60-Dox cells): sensitive to CDDO-Me-induced killing
- Diagnoses/observations ([3]; CDDO-Me IV single bolus, 1.0 mg/kg, 14 days): DIED @ 5 minutes
- Diagnoses/observations ([3]; mouse, in vivo, iv): Myeloid hyperplasia bone marrow
- viable cells recovered (HL-60 cells [4]; 0.5 μM, 48 hrs): essentially no viable cells
- IC50 (HL-60 cells [4]; read-out: IC50): 0.4 µM
- surviving colonies (AML progenitors; 0.1 μM): 46.7%±6.6
- surviving colonies (AML progenitors; 0.3 μM): 27.5%±6.8
- surviving colonies (AML progenitors; 0.5 μM): 8.8%±3.8

SMILES: CC1(C)CCC2(C(=O)O)CCC3(C)C(C(=O)C=C4C5(C)C=C(C#N)C(=O)C(C)(C)C5CCC43C)C2C1 (stereo not shown) [CDDO, 2-cyano-3,12-dioxoolen-1,9-dien-28-oic acid]
- AML samples with induced monocytic differentiation (CD14) (primary AML cells): 3/11
- CFU-GM of normal CD34+ cells inhibited by (normal CD34+ cells; at this concentration (n=3)): 26.8±4.3%
- inhibition at 0.5 µM (CML-BC sample; Homo sapiens, read-out: inhibition of colonies in one CML-BC sample): > 50%
- Daudi cells alive (Daudi cells; 1 μM): 73.6%
- viability at 2 µM (Daudi cells; Homo sapiens, Daudi, read-out: viable cells): 25.3%
- concentration needed to exert similar effect (CD11b+ as 0.1 μM CDDO-Me) (HL-60 cells [1]): 1 µM
- CD11b % (HL-60 cells [1]; 0.1 μM (DMSO control 24.9)): 45.0%
- CD11b % (HL-60 cells [1]; 0.3 μM): 75.9%
- percentage of CD14 (+) live cells (FCM) (HL-60 cells [1]; CDDO 0.5 μM): 36.7%
- percentage of CD14 (+) live cells (FCM) (HL-60 cells [1]; CDDO 1 μM): 80.4%
- concentration at which monocytic differentiation was induced (HL-60 cells [1]; HL-60 cells): 0.5 to 1.0 µM
- formation of capillary-like structures by bone marrow endothelium [2]: potently inhibited the formation of capillary-like structures
- sensitivity of HL-60-Dox cells with high expression of the MDR-1 gene (HL-60-Dox cells): sensitive to CDDO-induced killing
- Diagnoses/observations ([3]; mouse, in vivo, iv, 0.3 mg/kg): Myeloid hyperplasia bone marrow
- Diagnoses/observations ([3]; mouse, in vivo, iv, 3 mg/kg): Myeloid hyperplasia, bone marrow
- IC50 (HL-60 cells [4]; Homo sapiens, 72 and 96 hours, read-out: concentration of CDDO that reduced cell numbers by 50%): 0.001 µM
- IC50 (HL-60 cells [4]; Homo sapiens, 48 hours, read-out: concentration of CDDO that reduced cell numbers by 50%): 0.01 µM
- colony formation of AML progenitors reduced (AML progenitors; 1 μM, n=6): 58±4.6%

Reference: patent publication US7795305B2, “CDDO-compounds and combination therapies thereof” (Board of Regents, The University of Texas System, priority 2000, dated 2010)
